# Measurements: US10632106B2, “Methods of cancer treatment with 2-(1′H-Indole-3′-carbonyl)-thiazole-4-carboxylic acid methyl ester” (Ariagen, Inc., priority 2009, dated 2020)
# Test system: human breast cancer cell line MCF-7 xenografts
# Assay: MCF-7 xenograft growth inhibition in nude mice
# Format: in vivo
# Settings: 20 mg/kg i.p. once daily
# Method: All the procedures related to animal handling, care, and the treatment in the study were performed following guidelines approved by an Institutional Animal Care and Use Committee (IACUC) of Crown Bioscience, Inc. (Santa Clara, Calif., USA, a contract research organization we hired) based on the guidance of the Association for Assessment and Accreditation of Laboratory Animal Care (AAALAC). Animals were checked for any effects of tumor growth and drug treatment on normal behavior such as mobility, food and water consumption, body weight gain/loss (gross body weights were measured twice weekly), eye/hair matting, and any other abnormal effect. Death and observed clinical signs were recorded on the basis of the number of animals within each group. Individual animals with a tumor volume exceeding 3,000 mm^3 or animals of a group with a mean tumor volume exceeding 2,000 mm^3 were euthanized. […]
# Tumor volume was measured twice weekly in two dimensions using a caliper and the volume was calculated with a formula of: V=0.5 a×b^2, where a and b are the long and short diameter (in mm) of a tumor, respectively. […] The TGD was calculated as: TGD=T−C, where T was the time (in days) required for tumors in a drug treated group to reach a predetermined mean tumor volume and C the time (in days) in the control group to reach the same volume. […]
compound,measurement,setting,value
"COC(=O)c1csc(C(=O)c2c[nH]c3ccccc23)n1 [ITE, 2-(1′H-indole-3′-carbonyl)-thiazole-4-carboxylic acid methyl ester]",TGD (Tumor Growth Delay),at a tumor volume of 500 mm^3,3 days
same,TGI (Tumor Growth Inhibition),"day 19, TGI=ΔT/ΔC×100%",71%
